# Experimental data published in patent US9937204B2 (priority 2008, dated 2018).
# Experiments:
# Candida species = experiment: Time-kill assay, all species together; type: cell-based; conditions: chlorhexidine gluconate concentrations tested (0.015-0.12%); within one minute of exposure
# Protocol: Following exposure, 100 μl aliquots were diluted 50% with 0.85% saline and plated onto potato dextrose agar plates. The aliquots were allowed to dry and then were streaked to remove the yeast from the compound. The plates were incubated at 35° C. for 24 hours. Colony counts were taken and were compared to initial inoculum. The same test was done treating the four Candida species with chlorhexidine gluconate at concentrations ranging from 0.015-0.12%. Chlorhexidine gluconate at concentration 0.12% is commonly prescribed to patients with oral disease.
# non-albicans isolates = conditions: out of 100 non-albicans isolates from HIV patients with thrush; cited from earlier work
Compound,Time-kill result in words (colony count) (Candida species),Number of isolates resistant (non-albicans isolates)
"N=C(NCCCCCCNC(=N)NC(=N)Nc1ccc(Cl)cc1)NC(=N)Nc1ccc(Cl)cc1.O=C(O)[C@H](O)[C@@H](O)[C@H](O)[C@H](O)CO.O=C(O)[C@H](O)[C@@H](O)[C@H](O)[C@H](O)CO [chlorhexidine gluconate, Chlorhexidine gluconate]",did not reduce the colony count,
OC(Cn1cncn1)(Cn1cncn1)c1ccc(F)cc1F [fluconazole],,88
